Source: patent US8211929B2, “Pyrimidine derivatives as kinase modulators and method of use” (Exelixis, Inc., priority 2004, dated 2012)

Legend:
[1] = molecular target: T1, IGF 3P (Homo sapiens, UniProt P08069); assay: IGF1R kinase assay (LCCA), IGF 3P; assay type: biochemical; details: IGF1R kinase LCCA assay
T1 construct: human IGF1R kinase domain residues M954-C1367; made in house; host or cells: baculovirus expression (insect cells)
Summary of the method: (§1)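 Read-out is percent ATP remaining, detected by luciferase-luciferin luminescence after a 2 h ambient reaction. Reaction contained 4 nM IGF1R kinase domain (residues M954-C1367, baculovirus-made), 3 μM ATP (near KM), 4 μM poly EY, pH 7.5 with Mg2+/Mn2+. Ten inhibitor concentrations; IC50 by Hill-type curve fit.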

[2] = molecular target: T2, (Homo sapiens, UniProt P08069); assay: IGF1R kinase assay (LCCA), IGF 0P; assay type: biochemical; details: IGF1R kinase LCCA assay
T2 construct: human IGF1R kinase domain residues M954-C1367; made in house; host or cells: baculovirus expression (insect cells)
Summary of the method: as §1

T2 sequence (P08069 954-1367): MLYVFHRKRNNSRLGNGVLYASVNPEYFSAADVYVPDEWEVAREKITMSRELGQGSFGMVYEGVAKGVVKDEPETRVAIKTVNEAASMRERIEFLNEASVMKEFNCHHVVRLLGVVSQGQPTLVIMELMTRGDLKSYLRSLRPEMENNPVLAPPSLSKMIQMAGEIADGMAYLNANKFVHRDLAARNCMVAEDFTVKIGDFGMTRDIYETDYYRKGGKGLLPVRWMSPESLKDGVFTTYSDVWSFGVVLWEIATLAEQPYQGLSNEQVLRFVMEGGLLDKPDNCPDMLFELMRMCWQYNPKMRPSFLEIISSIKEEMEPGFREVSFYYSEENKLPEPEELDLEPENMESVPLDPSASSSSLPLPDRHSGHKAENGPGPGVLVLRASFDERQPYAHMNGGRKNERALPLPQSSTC
T1 sequence (P08069 954-1367): as above

IC50 [1] | IC50 [2] | IC50 ([1]; IGF 3P) | IC50 ([2]; IGF 0P) | Compound
> 5000 nM | > 5000 nM | – | – | Brc1cnc(Nc2ccccc2N2CCCCC2)nc1Nc1cc(C2CC2)[nH]n1 [Example 334]
> 5000 nM | > 5000 nM | – | – | O=C(c1ccccc1)c1ccccc1Nc1ncc(Br)c(Nc2cc(C3CC3)n[nH]2)n1 [Example 335]
500 to 5000 nM | 500 to 5000 nM | – | – | Nc1ncnc2c1c(-c1ccc(NC(=O)C3(C(=O)Nc4ccc(F)cc4)CC3)cc1)cn2C1CC(CN2CCCC2)C1 (stereo not drawn) [Example 343]
500 to 5000 nM | > 5000 nM | – | – | NCCCCn1cc(-c2cccc(OCc3ccccc3)c2)c2c(N)ncnc21 [Example 344]
– | – | 500 to 5000 nM | > 5000 nM | CC(=O)NCC=CCn1cc(-c2cccc(OCc3ccccc3)c2)c2c(N)ncnc21 [Example 345]
500 to 5000 nM | > 5000 nM | – | – | CC(=O)NCC1CC(n2cc(-c3cccc(OCc4ccccc4)c3)c3c(NC(C)=O)ncnc32)C1 (stereo not drawn) [Example 346]
> 5000 nM | > 5000 nM | – | – | Nc1ncnc2c1c(-c1ccc(NC(=O)C3(C(=O)Nc4ccc(F)cc4)CC3)cc1)cn2CC1CC2CNCC2C1 (stereo not drawn) [Example 347]
500 to 5000 nM | > 5000 nM | – | – | Nc1ncnc2c1c(-c1cccc(OCc3ccccc3)c1)cn2C1CNC1 [Example 348]
> 5000 nM | > 5000 nM | – | – | CC(=O)N1CCC(n2cc(-c3cccc(OCc4ccccc4)c3)c3c(N)ncnc32)CC1 [Example 349]
500 to 5000 nM | > 5000 nM | – | – | Nc1ncnc2c1c(-c1cccc(OCc3ccccc3)c1)cn2C1CCCCC1 [Example 350]
> 5000 nM | > 5000 nM | – | – | Nc1ncnc2c1c(-c1cccc(Oc3ccccc3)c1)cn2C1CCCC1 [Example 354]
> 5000 nM | > 5000 nM | – | – | CC(=O)NCC#CCn1cc(-c2cccc(OCc3ccccc3)c2)c2c(N)ncnc21 [Example 355]
> 5000 nM | > 5000 nM | – | – | Nc1ncnc2c1c(-c1cccc(OCc3ccccc3)c1)cn2CC1CC2CN(C(=O)OCc3ccccc3)CC2C1 (stereo not drawn) [Example 356]
> 5000 nM | > 5000 nM | – | – | Nc1ncnc2c1c(-c1ccc(NC(=O)C3(C(=O)Nc4ccc(F)cc4)CC3)cc1)cn2CC1CC2CN(C(=O)OCc3ccccc3)CC2C1 (stereo not drawn) [Example 357]
> 5000 nM | > 5000 nM | – | – | Nc1ncnc2c1c(-c1cccc(OCc3ccccc3)c1)cn2CC1CC2CNCC2C1 (stereo not drawn) [Example 358]
< 50 nM | 50 to 500 nM | – | – | CCN(CC)CCCNc1cc(Nc2cc(C(C)C)[nH]n2)nc(NCc2cc(-c3ccccc3)no2)n1 [Example 495]
< 50 nM | 50 to 500 nM | – | – | CC(C)c1cc(Nc2cc(N3CCOCC3)nc(NCc3cc(-c4ccccc4)no3)n2)n[nH]1 [Example 496]
< 50 nM | 50 to 500 nM | – | – | CC(C)c1cc(Nc2cc(N3CCN(C)CC3)nc(NCc3cc(-c4ccccc4)no3)n2)n[nH]1 [Example 497]
50 to 500 nM | 50 to 500 nM | – | – | Cc1cc(Nc2cc(C3CC3)[nH]n2)nc(NCc2cc(-c3ccccn3)no2)n1 [Example 498]
< 50 nM | 50 to 500 nM | – | – | c1ccc(-c2cc(CNc3nc(Nc4cc(C5CC5)[nH]n4)cc(N4CCNCC4)n3)on2)cc1 [Example 499]
< 50 nM | 50 to 500 nM | – | – | Cc1cc(Nc2cc(C3CC3)[nH]n2)nc(NCc2cc(-c3ccc(F)cc3)no2)n1 [Example 500]

IC50 [1] | IC50 [2] | IC50 ([1]; IGF 3P) | IC50 ([2]; IGF 0P) | Compound
< 50 nM | 50 to 500 nM | – | – | c1ccc(-c2cc(CNc3nc(Nc4cc(C5CC5)[nH]n4)cc(OCCN4CCOCC4)n3)on2)cc1 [Example 501]
< 50 nM | 50 to 500 nM | – | – | CN1CCN(CCNc2cc(Nc3cc(C4CC4)[nH]n3)nc(NCc3cc(-c4ccccc4)no3)n2)CC1 [Example 509]
50 to 500 nM | 50 to 500 nM | – | – | O=C(c1cc(Nc2cc(C3CC3)[nH]n2)nc(NCc2cc(-c3ccccc3)no2)n1)N1CCOCC1 [Example 512]
< 50 nM | 50 to 500 nM | – | – | c1ccc(-c2cc(CNc3nc(NCCN4CCOCC4)cc(Nc4cc(C5CC5)[nH]n4)n3)on2)cc1 [Example 513]
– | – | < 50 nM | 50 to 500 nM | c1ccc(-c2cc(CNc3nc(Nc4cc(C5CC5)n[nH]4)cc(OCCN4CCCC4)n3)on2)cc1 [Example 514]
< 50 nM | 50 to 500 nM | – | – | CN1CCC(Oc2cc(Nc3cc(C4CC4)[nH]n3)nc(NCc3cc(-c4ccccc4)no3)n2)C1 (stereo not drawn) [Example 515]
< 50 nM | 50 to 500 nM | – | – | c1ccc(-c2cc(CNc3nc(NCCN4CCCCC4)cc(Nc4cc(C5CC5)[nH]n4)n3)on2)cc1 [Example 516]
< 50 nM | 50 to 500 nM | – | – | CC(C)c1cc(Nc2cc(OCCN(C)C)nc(NCc3cc(-c4ccccc4)no3)n2)n[nH]1 [Example 518]
< 50 nM | 50 to 500 nM | – | – | O=C(NCCN1CCCC1)c1cc(Nc2cc(C3CC3)[nH]n2)nc(NCc2cc(-c3ccccc3)no2)n1 [Example 521]
< 50 nM | 50 to 500 nM | – | – | CN1CCN(C(=O)c2cc(Nc3cc(C4CC4)[nH]n3)nc(NCc3cc(-c4ccccc4)no3)n2)CC1 [Example 522]
50 to 500 nM | 50 to 500 nM | – | – | Cc1cc(Nc2cc(C3CC3)[nH]n2)nc(NCc2cc(-c3ccccc3Br)no2)n1 [Example 525]
< 50 nM | 500 to 5000 nM | – | – | Cc1cc(Nc2cc(C(C)C)[nH]n2)nc(NCc2cc(C(C)C)no2)n1 [Example 526]
50 to 500 nM | 50 to 500 nM | – | – | CN1CCN(CCNC(=O)c2cc(Nc3cc(C4CC4)[nH]n3)nc(NCc3cc(-c4ccccc4)no3)n2)CC1 [Example 527]
50 to 500 nM | 50 to 500 nM | – | – | Cc1cc(Nc2cc(C)nc(NCc3cc(-c4ccccc4)no3)n2)[nH]n1 [Example 528]
50 to 500 nM | 50 to 500 nM | – | – | CCN(CC)CCCNC(=O)c1cc(Nc2cc(C3CC3)[nH]n2)nc(NCc2cc(-c3ccccc3)no2)n1 [Example 529]
< 50 nM | 50 to 500 nM | – | – | CCN(CC)CCNC(=O)c1cc(Nc2cc(C3CC3)[nH]n2)nc(NCc2cc(-c3ccccc3)no2)n1 [Example 530]
< 50 nM | 50 to 500 nM | – | – | O=C(NCCN1CCCCC1)c1cc(Nc2cc(C3CC3)[nH]n2)nc(NCc2cc(-c3ccccc3)no2)n1 [Example 531]
50 to 500 nM | 50 to 500 nM | – | – | O=C(NCCN1CCOCC1)c1cc(Nc2cc(C3CC3)[nH]n2)nc(NCc2cc(-c3ccccc3)no2)n1 [Example 533]
< 50 nM | 500 to 5000 nM | – | – | Brc1cnc(Nc2ccc(N3CCOCC3)cc2)nc1Nc1ccc2c(c1)CNCC2 [Example 534]
50 to 500 nM | 50 to 500 nM | – | – | Cc1cc(Nc2cc(C(C)C)[nH]n2)nc(NCc2cc(-c3cccc(Cl)c3)no2)n1 [Example 535]
500 to 5000 nM | 500 to 5000 nM | – | – | Cc1cc(Nc2cc(C3CC3)[nH]n2)nc(NCc2cnc[nH]2)n1 [Example 536]

IC50 [1] | IC50 [2] | IC50 ([1]; IGF 3P) | IC50 ([2]; IGF 0P) | Compound
500 to 5000 nM | 500 to 5000 nM | – | – | COC(=O)C1CCc2cc(Nc3nc(C)cc(Nc4cc(C5CC5)n[nH]4)n3)ccc2N1 (stereo not drawn) [Example 537]
50 to 500 nM | 50 to 500 nM | – | – | Cc1cc(Nc2cc(C3CC3)[nH]n2)nc(NCc2cc(-c3cccc(Cl)c3)no2)n1 [Example 538]
500 to 5000 nM | 500 to 5000 nM | – | – | CNCCc1ccc(Nc2nc(C)cc(Nc3cc(C4CC4)n[nH]3)n2)cc1 [Example 540]
< 50 nM | 50 to 500 nM | – | – | CCN(CC)CCNC(=O)CCc1ccc(Nc2ncc(Br)c(Nc3ccccc3)n2)cc1 [Example 541]
50 to 500 nM | 50 to 500 nM | – | – | Cc1cc(Nc2cc(C3CC3)[nH]n2)nc(NCc2cc(-c3cccc(Br)c3)no2)n1 [Example 542]
< 50 nM | 500 to 5000 nM | – | – | CC(C)c1cc(CNc2nc(Cl)cc(Nc3cc(C(C)C)[nH]n3)n2)on1 [Example 544]
50 to 500 nM | 500 to 5000 nM | – | – | Cc1cc(Nc2cc(C3CC3)n[nH]2)nc(Nc2ccc3c(c2)CNCC3)n1 [Example 545]
50 to 500 nM | 500 to 5000 nM | – | – | Cc1cc(Nc2cc(C3CC3)n[nH]2)nc(Nc2ccc3c(c2)CC(N)C3)n1 (stereo not drawn) [Example 546]
50 to 500 nM | 500 to 5000 nM | – | – | Cc1cc(Nc2cc(C3CC3)n[nH]2)nc(Nc2ccc(CCN)cc2)n1 [Example 550]
50 to 500 nM | 500 to 5000 nM | – | – | Cc1cc(Nc2cc(C3CC3)n[nH]2)nc(Nc2ccc(CCN3CCCC3)cc2)n1 [Example 551]
500 to 5000 nM | 500 to 5000 nM | – | – | Cc1cc(Nc2cc(C3CC3)n[nH]2)nc(Nc2ccc(C3CCNCC3)cc2)n1 [Example 553]
500 to 5000 nM | 500 to 5000 nM | – | – | Cc1cc(Nc2cc(C3CC3)n[nH]2)nc(Nc2ccc(CCN3CCCCC3)cc2)n1 [Example 554]
500 to 5000 nM | 500 to 5000 nM | – | – | Cc1cc(Nc2cc(C3CC3)[nH]n2)nc(NCc2cc(C(=O)N3CCN(C)CC3)no2)n1 [Example 555]
500 to 5000 nM | 500 to 5000 nM | – | – | Cc1cc(Nc2cc(C3CC3)n[nH]2)nc(Nc2ccc(CCN3CCOCC3)cc2)n1 [Example 556]
– | – | < 50 nM | 50 to 500 nM | CC(C)c1cc(CNc2nc(Nc3cc(C4CC4)[nH]n3)cc(N3CCN[C@H](C)C3)n2)on1 [Example 557]
< 50 nM | 50 to 500 nM | – | – | CC(C)c1cc(CNc2nc(NCCN3CCN(C)CC3)cc(Nc3cc(C(C)C)[nH]n3)n2)on1 [Example 558]
< 50 nM | 500 to 5000 nM | – | – | CC(C)c1cc(CNc2nc(NCCN3CCN(C)CC3)cc(Nc3cc(C4CC4)[nH]n3)n2)on1 [Example 559]
50 to 500 nM | 50 to 500 nM | – | – | c1ccc(-c2cc(CNc3nc(CN4CCOCC4)cc(Nc4cc(C5CC5)[nH]n4)n3)on2)cc1 [Example 561]
500 to 5000 nM | 500 to 5000 nM | – | – | Cc1cc(Nc2cc(C3CC3)[nH]n2)nc(NCc2ccc(-c3ccc(Cl)cc3)s2)n1 [Example 562]
500 to 5000 nM | 500 to 5000 nM | – | – | Cc1cc(Nc2cc(C3CC3)[nH]n2)nc(NCc2ccco2)n1 [Example 563]
500 to 5000 nM | 500 to 5000 nM | – | – | Cc1cc(Nc2cc(C3CC3)n[nH]2)nc(Nc2ccc3c(c2)CN(C(=O)OC(C)(C)C)CC3)n1 [Example 565]
